In US8530404B2, “Compounds and methods for treatment of cancer” (FibroGen, Inc., priority 2005, dated 2013):

Columns and labels:
[1] = tested on: BNIP3L gene expression; assay: BNIP3L gene expression in Kelly neuroblastoma cells (Affymetrix microarray); format: cell-based; details: 20 μM, 6 hours, vs 0.5% DMSO control
Experimental: (§1) To identify compounds useful in the methods of the present invention, the following studies were performed. The effect of compounds of the present invention on expression of various genes associated with anti-tumor activity (e.g., genes having anti-proliferative activity, genes having pro-apoptotic activity, genes having anti-tumor activity, etc.). In these experiments, the effect of compounds on BNIP3, BNIP3L, NDRG1, CDKN1C, and REDD1/RTP801 gene expression in various types of cultured tumor cells line was examined, including Hep3B cells (human hepatocellular carcinoma), Kelly neuroblastoma cells, and MCF7 cells (human breast cancer)
(§2) The effects of various compounds of the present invention on the expression of genes associated with tumor growth and progression were examined in Kelly neuroblastoma cells as follows. Kelly neuroblastoma cells were grown in RPMI media. […]
(§3) RNA was isolated from the Kelly neuroblastoma cells using a commercial kit and used for the preparation of cDNA. BNIP3, CDKN1C, and 18S RNA levels were measured using commercial kits (18S, Applied Biosystems cat#4319413E); BNIP3, Applied Biosystems cat#HS00969293 MH). […] Kelly cell NDRG1 and BNIP3L mRNA levels were measured by Affymetrix microarray in a separate study. […]

[2] = tested on: NDRG1 gene expression; assay: NDRG1 gene expression in Kelly neuroblastoma cells (Affymetrix microarray); format: cell-based; details: 20 μM, 6 hours, vs 0.5% DMSO control
Experimental: as §1, §2, §3

[3] = tested on: REDD1/RTP801 gene expression; assay: REDD1/RTP801 gene expression in Kelly neuroblastoma cells; format: cell-based; details: 20 μM, vs DMSO control
Experimental: as §1, §2, §3

[4] = tested on: HCT116-GFP colon tumors; assay: Orthotopically implanted human HCT116-GFP colon tumor mouse xenograft (Example 4); format: in vivo
Experimental: Procedures were carried out as described above for Example 3, except that the tumors of GFP-transfected H-460 cells were replaced with HCT116-GFP colon tumors, and surgical orthotopic implantation was directly into colon tissue.
The HCT116 tumor model used here is a well-characterized representative colon xenograft model. The isolation of the human HCT116 tumor cell line from a human colon carcinoma has been described. (Brattain et al (1981) Cancer Res 41:1751-1756.) To aid in the detection of tumors and metastases, HCT116 cells were transduced with genes directing the expression of fluorescent proteins (e.g., HCT116-GFP). The use of fluorescent HCT116-derived tumors in similar studies has been described previously. (Ross et al (2000) Nat Genet 24:227-235.)
HCT116-GFP tumor fragments harvested from the stock animals were transplanted into animals by surgical orthotopic implantation (SOI) as follows. The animals were anesthetized with isoflurane and the surgical area was sterilized using iodine and alcohol. After proper exposure of the colon following a lower midline abdominal incision, the serosa of the colon was removed and two pieces of 1 mm^3 tumor fragments per mouse were implanted. An 8-0 surgical suture was used to penetrate these small tumor pieces and suture them on the wall of the intestine. The intestine was then returned to the abdominal cavity. The incision in the abdominal wall was closed with a 6-0 surgical suture in one layer. The animals were kept under isoflurane anesthesia during surgery. All procedures of the operation described above were performed under a 7× magnification microscope (Olympus). Animals were kept in a barrier facility under HEPA filtration.
Administration of Compound A or 5-FU (5-Flurouracil) to the animals was initiated three days following tumor transplantation. 5-FU, a chemotherapeutic agent used as a positive control, was administered by intraperitoneal injection (60 mg/kg) at four day intervals for a total of three doses. Compound A was administered at either 20 mg/kg or 60 mg/kg three times per week. Tumor volumes were measured at day 15, day 22, and day 29.

SMILES | fold-increase in BNIP3L mRNA expression [1] | fold-increase in NDRG1 mRNA expression [2] | fold-increase in REDD1/RTP801 mRNA expression [3] | mean tumor volume (calipers, mean +/- SD) ([4]; Treatment Day 15, 20 mg/kg three times per week) | mean tumor volume (calipers, mean +/- SD) ([4]; Treatment Day 15, 60 mg/kg three times per week) | mean tumor volume (calipers, mean +/- SD) ([4]; Treatment Day 22, 20 mg/kg three times per week) | mean tumor volume (calipers, mean +/- SD) ([4]; Treatment Day 22, 60 mg/kg three times per week) | mean tumor volume (calipers, mean +/- SD) ([4]; Treatment Day 29, 20 mg/kg three times per week) | mean tumor volume (calipers, mean +/- SD) ([4]; Treatment Day 29, 60 mg/kg three times per week)
COc1ccc(Oc2ccc3c(O)c(C(=O)NCC(=O)O)ncc3c2)cc1 [Compound C, {[4-Hydroxy-7-(4-methoxy-phenoxy)-isoquinoline-3-carbonyl]-amino}-acetic acid] | 5.9 fold | 7.3 fold | 3.6 fold |  |  |  |  |  | 
O=C(O)CNC(=O)c1nc(Cl)c2ccccc2c1O [Compound A, [(1-Chloro-4-hydroxy-isoquinoline-3-carbonyl)-amino]-acetic acid] |  |  |  | 39 +/− 27 | 24 +/− 23 | 67 +/− 49 | 45 +/− 38 | 197 +/− 158 | 152 +/− 125
